ChEMBL document CHEMBL1151373, “Antitumor agents. 49 tricin, kaempferol-3-O-beta-D-glucopyranoside and (+)-nortrachelogenin, antileukemic principles from Wikstroemia indica” (1981)

Tests used:
Assay type in all cases: functional
[1] = system: P388; experiment: Cytotoxicity against mouse P388 cells xenografted in BDF1 mouse at 6 mg/kg relative to control
[2] = system: P388; experiment: Cytotoxicity against mouse P388 cells xenografted in BDF1 mouse at 12.5 mg/kg relative to control
[3] = Growth inhibition of mouse EAC cells xenografted in CF1 mouse at 3 mg/kg/day, ip; settings: Ehrlich, route intraperitoneal
[4] = system: P388; experiment: Cytotoxicity against mouse P388 cells xenografted in BDF1 mouse at 16 mg/kg relative to control
[5] = system: P388; experiment: Cytotoxicity against mouse P388 cells xenografted in CDF1 mouse at 16 mg/kg relative to control
[6] = system: P388; experiment: Cytotoxicity against mouse P388 cells xenografted in CDF1 mouse at 4 mg/kg relative to control
[7] = system: P388; experiment: Cytotoxicity against mouse P388 cells xenografted in CDF1 mouse at 1 mg/kg relative to control
[8] = system: P388; experiment: Cytotoxicity against mouse P388 cells xenografted in CDF1 mouse at 10 mg/kg relative to control
[9] = system: P388; experiment: Cytotoxicity against mouse P388 cells xenografted in CDF1 mouse at 2 mg/kg relative to control
[10] = system: P388; experiment: Cytotoxicity against mouse P388 cells xenografted in BDF1 mouse at 4 mg/kg relative to control
[11] = system: P388; experiment: Cytotoxicity against mouse P388 cells xenografted in BDF1 mouse at 8 mg/kg relative to control

SMILES: O=c1c(O[C@@H]2O[C@H](CO)[C@@H](O)[C@H](O)[C@H]2O)c(-c2ccc(O)cc2)oc2cc(O)cc(O)c12 [ASTRAGALIN]
- T/C [1]: 122%
- T/C [2]: 130%

SMILES: COc1cc2cc(Oc3ccc4ccc(=O)oc4c3)c(=O)oc2cc1O [DAPHNORETIN]
- inhibition in vivo at 3 mg/kg/day [3]: 97%

SMILES: COc1cc(-c2cc(=O)c3c(O)cc(O)cc3o2)cc(OC)c1O [TRICIN]
- T/C [1]: 133%
- T/C [2]: 174%

SMILES: COc1cc(C[C@@H]2COC(=O)[C@@]2(O)Cc2ccc(O)c(OC)c2)ccc1O [WIKSTROMOL]
- T/C [4]: 130%
- T/C [5]: 154%
- T/C [6]: 137%
- T/C [7]: 130%
- T/C [8]: 146%
- T/C [9]: 141%
- T/C [10]: 122%
- T/C [11]: 130%
